Laboratory results from article PMC6317804, “The integration of pharmacophore-based 3D QSAR modeling and virtual screening in safety profiling: A case study to identify antagonistic activities against adenosine receptor, A2A, using 1,897 known drugs” (PLoS ONE, 2019).
Where “and” joins values, the source holds several entries; their conditions need not be identical. Identical values can stand only once.

Columns and labels:
[1] = molecular target: T1, adenosine receptor 2A (A2A) (Homo sapiens, UniProt P29274); assay: Functional antagonist assay monitoring cAMP (CEREP); assay type: cell-based;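 for IC50, cAMP, M: eight-point concentration-response from 0 to 10 µM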
T1 construct: CEREP (Poitiers, France), paid service
Protocol: (§1) Competition binding assay using radioactive ligands and functional assay monitoring cAMP were carried out as a paid service provided by CEREP (Poitiers, France). The functional assays monitoring Ca^2+ flux were carried out as a paid service provided by DiscoveRx (Carlsbad, CA).

[2] = molecular target: T1, adenosine receptor 2A (A2A); assay: Functional assay monitoring Ca2+ flux (DiscoveRx); assay type: cell-based; parameters: inhibition: dose or concentration left out as unconfirmed; settings: for inhibition: read-out: IC50, Ca2+, M; for inhibition at up to 10 µM: read-out: IC50, Ca2+
Protocol: as §1

[3] = molecular target: T1, adenosine receptor 2A (A2A); assay: Competition binding assay using radioactive ligands (CEREP); parameters: inhibition: dose or concentration left out as unconfirmed; settings: for inhibition at 10 µM: fixed compound concentration of 10 μM;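 for all read-outs here: compounds screened at a single fixed 10 µM concentration for displacement of a radioligand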
Protocol: as §1

[4] = system: A2A; settings: cited from earlier work
[5] = concentration-response up to 10 μM, read-out: IC50, cAMP
[6] = concentration-response up to 10 μM

T1 sequence (P29274 whole entry): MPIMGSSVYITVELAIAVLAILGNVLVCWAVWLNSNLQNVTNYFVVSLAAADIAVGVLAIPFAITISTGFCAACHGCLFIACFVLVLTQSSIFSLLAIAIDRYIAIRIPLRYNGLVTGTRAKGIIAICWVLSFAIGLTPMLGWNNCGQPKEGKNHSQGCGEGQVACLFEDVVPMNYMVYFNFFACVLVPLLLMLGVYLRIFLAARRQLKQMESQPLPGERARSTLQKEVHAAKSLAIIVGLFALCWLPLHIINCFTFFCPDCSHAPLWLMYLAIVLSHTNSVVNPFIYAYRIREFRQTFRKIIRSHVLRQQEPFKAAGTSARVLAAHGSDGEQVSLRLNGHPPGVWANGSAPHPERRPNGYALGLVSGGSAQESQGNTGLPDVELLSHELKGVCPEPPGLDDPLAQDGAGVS

| SMILES | inhibition at up to 10 µM [1, 5] [%] | inhibition [2] [%] | inhibition at 10 µM [3] [%] | other results |
| --- | --- | --- | --- | --- |
| CC1=C(C(=O)O)N2C(=O)[C@@H](NC(=O)[C@H](N)c3ccccc3)[C@H]2SC1 [Cephalexin] | < 50 | < 50 | < 50 |  |
| C#C[C@]1(O)CC[C@H]2[C@@H]3CCC4=CCCC[C@@H]4[C@H]3C(=C)C[C@@]21CC [Desogestrel] | < 50 | < 50 | < 50 |  |
| COc1ccc([C@@H]2Sc3ccccc3N(CCN(C)C)C(=O)[C@@H]2OC(C)=O)cc1 [Diltiazem] | < 50 | < 50 | < 50 |  |
| COc1cccc2c1C(=O)c1c(O)c3c(c(O)c1C2=O)C[C@@](O)(C(=O)CO)C[C@@H]3O[C@H]1C[C@H](N)[C@H](O)[C@H](C)O1 [Doxorubicin] | < 50 |  | < 50 | IC50 [2, 6]: 2.5 µM |
| C[C@@H](O)[C@H]1C(=O)N2C(C(=O)O)=C(S[C@@H]3CN[C@H](C(=O)Nc4cccc(C(=O)O)c4)C3)[C@H](C)[C@H]12 [Ertapenem] | < 50 | < 50 | < 50 |  |
| Cc1cc(C#N)cc(C)c1Oc1nc(Nc2ccc(C#N)cc2)nc(N)c1Br [Etravirine] | < 50 |  | < 50 | inhibition at up to 10 µM [2, 6]: < 50% |
| O=C(/C=C/c1c(-c2ccccc2)nn2ccccc12)N1CCCC[C@@H]1CCO [FK453] |  |  |  | IC50 [4]: 1.58 µM |
| NC(N)=Nc1nc(CSCCC(N)=NS(N)(=O)=O)cs1 [Famotidine] |  | < 50 | < 50 | inhibition [1, 5]: < 50% |
| NC(=O)OCC(COC(N)=O)c1ccccc1 [Felbamate] | < 50 | < 50 | < 50 |  |
| Cc1onc(-c2c(F)cccc2Cl)c1C(=O)N[C@@H]1C(=O)N2[C@@H]1SC(C)(C)[C@@H]2C(=O)O [Flucloxacillin] | < 50 | < 50 | < 50 |  |
| NCC1(CC(=O)O)CCCCC1 [Gabapentin] |  | < 50 |  | inhibition ([1]; read-out: IC50, cAMP, M): < 50%; inhibition ([3]; read-out: %inhibition, binding): < 50% |
| CCC1=C(C)CN(C(=O)NCCc2ccc(S(=O)(=O)NC(=O)N[C@H]3CC[C@H](C)CC3)cc2)C1=O [Glimepiride] | < 50 |  | < 50 | inhibition at up to 10 µM [2, 6]: < 50% |
| COc1ccc2c(c1)C(=O)N(CCc1ccc(S(=O)(=O)NC(=O)NC3CCCCC3)cc1)C(=O)C2(C)C [Gliquidone] | < 50 | < 50 | < 50 |  |
| CC(C)[N+]1(C)[C@@H]2CC[C@H]1C[C@@H](OC(=O)C(CO)c1ccccc1)C2 (some centres unmarked) [Ipratropium bromide] |  |  | < 50 | IC50, cAMP, M [1, 6]: N.E. (N.E., no effects. Results showing an inhibition or stimulation lower than 50% are considered to represent insignificant effects of the test compounds.); IC50, Ca2+, M [2, 6]: N.E. (N.E., no effects. Results showing an inhibition or stimulation lower than 50% are considered to represent insignificant effects of the test compounds.) |
| COC(=O)C1=C(C)NC(C)=C(C(=O)OC(C)C)C1c1cccc2nonc12 (centres unmarked) [Isradipine] | < 50 | < 50 | < 50 |  |
| c1ccc(-c2cc(-c3ccccc3)c3nc(C4CCCCC4)[nH]c3n2)cc1 [LUF5981] |  |  |  | IC50 [4]: 0.2 µM |
| Nc1nnc(-c2cccc(Cl)c2Cl)c(N)n1 [Lamotrigine] | < 50 | < 50 | < 50 |  |
| CCOC(=O)C1=C(C)NC(c2ccccc2)=C(C(=O)OCc2ccccc2)C1C#Cc1ccccc1 (centres unmarked) [MRS1191] |  |  |  | IC50 [4]: ~10 µM and 10 µM |
| Nc1ccc(O)c(C(=O)O)c1 [Mesalazine] | < 50 |  | < 50 | inhibition at up to 10 µM [2, 6]: < 50% |
| COCCc1ccc(OCC(O)CNC(C)C)cc1 (centres unmarked) [Metoprolol] | < 50 | < 50 | < 50 |  |
| COc1ccc(OC)c(C(O)CNC(=O)CN)c1 (centres unmarked) [Midodrine] | < 50 | < 50 | < 50 |  |
| Cc1[nH]c(=O)c(C#N)cc1-c1ccncc1 [Milrinone] | < 50 | < 50 | < 50 |  |

| SMILES | inhibition at up to 10 µM [1, 5] [%] | inhibition [2] [%] | inhibition at 10 µM [3] [%] | other results |
| --- | --- | --- | --- | --- |
| OC(CNCC(O)C1CCc2cc(F)ccc2O1)C1CCc2cc(F)ccc2O1 (centres unmarked) [Nebivolol] | < 50 | < 50 | < 50 |  |
| Cc1c(O)cccc1C(=O)N[C@@H](CSc1ccccc1)[C@H](O)CN1C[C@H]2CCCC[C@H]2C[C@H]1C(=O)NC(C)(C)C [Nelfinavir] | < 50 |  | < 50 | inhibition at up to 10 µM [2, 6]: < 50% |
| O=C1CCCC(=O)C1C(=O)c1ccc(C(F)(F)F)cc1[N+](=O)[O-] [Nitisinone] | < 50 |  | < 50 | inhibition at up to 10 µM [2, 6]: < 50% |
| NC[C@H](O)c1ccc(O)c(O)c1 [Norepinephrine] | < 50 | < 50 | < 50 |  |
| CC(=O)CCCCn1c(=O)c2c(ncn2C)n(C)c1=O [Pentoxifylline] | < 50 | < 50 | < 50 | IC50 [4]: ~10 µM |
| CN(C)CCC(c1ccccc1)c1ccccn1 (centres unmarked) [Pheniramine] | < 50 |  | < 50 | inhibition at up to 10 µM [2, 6]: < 50% |
| Cc1ccc2c(c1)c1c3n2CCNC3CCC1 (centres unmarked) [Pirlindole] | < 50 |  | < 50 | inhibition at up to 10 µM [2, 6]: < 50% |
| O=C(Nc1cccc2c(=O)cc(-c3nnn[nH]3)oc12)c1ccc(OCCCCc2ccccc2)cc1 [Pranlukast] | < 50 |  | < 50 | IC50 [2, 6]: 0.83 µM |
| CCCNCC(O)COc1ccccc1C(=O)CCc1ccccc1 (centres unmarked) [Propafenone] | < 50 | < 50 | < 50 |  |
| Cc1ncc(CO)c(C=O)c1O [Pyridoxal] | < 50 | < 50 | < 50 |  |
| NC(=O)c1ncn([C@@H]2O[C@H](CO)[C@@H](O)[C@H]2O)n1 [Ribavirin] | < 50 | < 50 | < 50 |  |
| CN(CCOc1ccc(CC2SC(=O)NC2=O)cc1)c1ccccn1 (centres unmarked) [Rosiglitazone] | < 50 | < 50 | < 50 |  |
| C[S+](CC[C@H](N)C(=O)[O-])C[C@H]1O[C@@H](n2cnc3c(N)ncnc32)[C@H](O)[C@@H]1O (some centres unmarked) [S-Adenosyl-methionine] | < 50 |  | 74 | inhibition at up to 10 µM [2, 6]: < 50% |
| O=C(Oc1ccccc1C(=O)O)c1ccccc1O [Salsalate] | < 50 | < 50 | < 50 |  |
| CC(C)OC(=O)[C@H](C)N[P@](=O)(OC[C@H]1O[C@@H](n2ccc(=O)[nH]c2=O)[C@](C)(F)[C@@H]1O)Oc1ccccc1 [Sofosbuvir] |  | < 50 | < 50 | inhibition ([1]; read-out: IC50, cAMP, M): < 50% |
| CCN1CCCC1CNC(=O)c1cc(S(N)(=O)=O)ccc1OC (centres unmarked) [Sulpiride] | < 50 | < 50 | < 50 |  |
| CCCSc1nc(N[C@@H]2C[C@H]2c2ccc(F)c(F)c2)c2nnn([C@@H]3C[C@H](OCCO)[C@@H](O)[C@H]3O)c2n1 [Ticagrelor] | < 50 |  | < 50 | inhibition at up to 10 µM [2, 6]: < 50% |
| Nc1nc(N)c2nc(-c3ccccc3)c(N)nc2n1 [Triamterene] | < 50 | < 50 | < 50 |  |
| CC(C)[C@H](N)C(=O)OCCOCn1cnc2c(=O)[nH]c(N)nc21 [Valaciclovir] | < 50 | < 50 | < 50 |  |
| CC(C)[C@H](N)C(=O)OCC(CO)OCn1cnc2c(=O)nc(N)[nH]c21 (some centres unmarked) [Valganciclovir] | < 50 | < 50 | < 50 |  |
| Cn1c(=O)c2c(ncn2CC(O)CO)n(C)c1=O (centres unmarked) [dyphylline] |  |  |  | IC50 [4]: ~10 µM |
